In doi:10.1101/2022.06.13.496020v1 (biorxiv, 2022):

How the values were obtained:
Assay in all cases: LANCE cAMP accumulation, transfected CHO-K1 cells
Assay type in all cases: cell-based
[1] = biological target: TSHR (full-length, 21-764) (Homo sapiens, UniProt P16473, V586A)
[2] = biological target: TSHR (full-length, 21-764) (Homo sapiens, UniProt P16473, M572A)
[3] = biological target: TSHR (full-length, 21-764) (Homo sapiens, UniProt P16473, I640A)
[4] = biological target: TSHR (full-length, 21-764) (Homo sapiens, UniProt P16473)
Sequence of TSHR (full-length, 21-764) (Homo sapiens, UniProt P16473) (P16473 21-764): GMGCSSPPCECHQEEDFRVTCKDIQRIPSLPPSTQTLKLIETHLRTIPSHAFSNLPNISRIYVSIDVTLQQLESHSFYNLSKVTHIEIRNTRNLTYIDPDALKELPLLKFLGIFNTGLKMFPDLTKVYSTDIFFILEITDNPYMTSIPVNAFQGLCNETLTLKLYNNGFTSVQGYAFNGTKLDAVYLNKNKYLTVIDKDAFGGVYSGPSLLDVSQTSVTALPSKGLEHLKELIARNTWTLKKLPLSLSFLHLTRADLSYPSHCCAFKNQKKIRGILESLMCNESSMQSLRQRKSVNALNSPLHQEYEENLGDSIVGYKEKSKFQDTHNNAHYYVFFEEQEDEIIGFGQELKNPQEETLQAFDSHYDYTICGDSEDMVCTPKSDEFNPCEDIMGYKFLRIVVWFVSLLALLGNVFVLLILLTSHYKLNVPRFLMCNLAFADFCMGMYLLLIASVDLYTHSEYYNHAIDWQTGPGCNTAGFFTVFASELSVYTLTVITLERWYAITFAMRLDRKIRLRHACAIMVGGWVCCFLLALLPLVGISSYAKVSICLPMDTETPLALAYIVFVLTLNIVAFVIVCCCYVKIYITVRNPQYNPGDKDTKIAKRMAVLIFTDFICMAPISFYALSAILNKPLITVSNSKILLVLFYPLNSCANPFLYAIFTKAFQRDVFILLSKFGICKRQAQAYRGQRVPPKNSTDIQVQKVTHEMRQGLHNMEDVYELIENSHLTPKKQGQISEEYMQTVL

[5] = biological target: TSHR (full-length, 21-764) (Homo sapiens, UniProt P16473, A644F)
Sequence of TSHR (full-length, 21-764) (Homo sapiens, UniProt P16473, A644F) (P16473 21-764 A644F): as the sequence (P16473 21-764) above, with A624F counted along it

Sequence of TSHR (full-length, 21-764) (Homo sapiens, UniProt P16473, M572A) (P16473 21-764 M572A): as the sequence (P16473 21-764) above, with M552A counted along it
Sequence of TSHR (full-length, 21-764) (Homo sapiens, UniProt P16473, V586A) (P16473 21-764 V586A): as the sequence (P16473 21-764) above, with V566A counted along it
Sequence of TSHR (full-length, 21-764) (Homo sapiens, UniProt P16473, I640A) (P16473 21-764 I640A): as the sequence (P16473 21-764) above, with I620A counted along it

EC50 [1]: 2.04 µM
EC50 [2]: 2.4 µM
EC50 [3]: 1.15 µM
EC50 [4]: 0.331 µM
EC50 [5]: 1.78 µM
SMILES: COc1ccc([C@H]2Nc3cccc(O)c3C(=O)N2Cc2ccccc2)cc1COc1ccc(NC(C)=O)cc1 [ML-109]
